Read-outs that look alike come from different tables or passages of the source.
Key:
S100B = target: T1, S100B (Homo sapiens, UniProt P04271); assay: Pull-down assay with immobilized protein and LSM libraries; type: binding; settings: 1:1 binding assumed, read-out: Surface mapping KD (apparent)
T1 construct: made in house; host or cells: Escherichia coli BL21(DE3)
T1 sequence (P04271 1-92): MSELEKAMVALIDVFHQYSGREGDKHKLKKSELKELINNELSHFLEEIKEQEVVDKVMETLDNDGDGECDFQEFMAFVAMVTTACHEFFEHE
Experimental: (§1) Pull-down assays with immobilized test proteins and foldameric LSM libraries were carried out. Proteins were equilibrated with LSM probes, and equilibrium bound fractions (FB) were determined from the unbound fractions measured by HPLC-MS methods. Hits were corrected with background binding of the resin. The protocol allowed all binding events to equilibrate irrespective of affinity, specificity, and binding kinetics. This was essential to judge overall druggability and promiscuity. Importantly, the concentration of protein and the total concentration of foldameric LSMs were equimolar, which minimized competition between the probes. This experimental setup approximated independent binding of individual library members. Results were visualized as heat maps of dissociation constants (Fig. 3).
(§2) Pull-down assay and data analysis
(§3) Pull-down assay. LSM sublibraries were screened separately as previously described.(2) Experiments were performed in the following buffers: (i) 20 mM pH 7.4 HEPES, 150 mM NaCl, 5 mM CaCl2 for CaM; (ii) 50 mM pH 7.4 HEPES, 150 mM NaCl, 1 mM TCEP, 1 mM CaCl2 for S100 proteins; (iii) 20 mM pH 7.4 HEPES, 150 mM NaCl, 1 mM TCEP for Gal-1 and (iv) 20 mM pH 7.4 HEPES, 150 mM NaCl for RecQ-WH. Assays were performed in paper filter spin cups (Thermo Scientific) with sample volumes of 100 µl. Hexahistidine-tagged proteins were immobilized on previously washed Co-NTA resin (TALON, Takara Bio USA, Inc., Mountain View, CA) in 64 µM final concentration. LSM sublibrary was added, in which each of the 64 library members were used at a concentration of 1 µM. Samples were incubated at room temperature for 30 min with shaking at 100 rpm. Then, samples were centrifuged at 1000 rpm for 2 min and washed with 100 µl pull-down buffer to remove unbound compounds.
(§4) The control experiments were performed using the same compounds and the resin but without the immobilized protein. In case of competitive assays, competitor peptides were added to LSM sublibrary samples in 200 µM final concentration. In the case of Gal-1, lactose (competitor) was used in a concentration of 10 mM. Experiments were performed at least twice. Mean […]
(§5) LC-MS methods and parameters. HPLC/ESI-MS analysis was used to characterize the samples from the pull-down assay. LC-MS analysis was performed with a Thermo Scientific Dionex UltiMate 3000 HPLC system interfaced to an LTQ ion trap mass spectrometer (Thermo Electron Corp., San Jose, CA, USA). Samples were injected onto an Aeris Widepore XB-C18 (250 x 4.6 mm) analytical HPLC column using gradient elution 5-80 % solution B during 25 minutes. For pull-down samples, eluent composition was 0.1% acetic acid in distilled water (Solution A) and 0.1% acetic acid in acetonitrile (solution B). Mass spectra were acquired in full scan mode from 200 to 2000 m/z range. For overlapping peaks, selective reaction monitoring (SRM) was […]
(§6) MS data analysis. Thermo Xcalibur 2.2 software was used for peak identification and integration. The majority of the foldameric fragments could be resolved independently via HPLC-MS/MS measurements based on molecular weight, MS fragmentation pattern and retention time. Peaks of some foldamers with β3-hIle or β3-hLeu in position R2 could not be resolved, these were integrated and averaged. In the processing method, each sample component was associated to a chromatographic peak based on previously identified mass (m/z) and retention time (ref (2) and Table S7-10). Using ICIS peak detection algorithm, the general detection and integration criteria were: smoothing points: 5, baseline window: 80, area noise factor: 5, peak noise factor: 10. Using these processing setups, all raw data files were reprocessed together and analyzed. Errors in peak identification during the automatic processing were corrected manually.
(§7) Calculation of the discussed parameters
(§8) 1. Bound fractions (FB.) were calculated from the HPLC-MS intensity loss of the LSM probes compared to the control where no protein was immobilized to the resin: […]

Gal-1 = target: T2, Gal-1 (Homo sapiens, UniProt P09382); assay: as above; type: binding; settings: 1:1 binding assumed, read-out: Surface mapping KD (apparent)
T2 construct: made in house; host or cells: E. coli BL21(DE3)
T2 sequence (P09382 whole entry): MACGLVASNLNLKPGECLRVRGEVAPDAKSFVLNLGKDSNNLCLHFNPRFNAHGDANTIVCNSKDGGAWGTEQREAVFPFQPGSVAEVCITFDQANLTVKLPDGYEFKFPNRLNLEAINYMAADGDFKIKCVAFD
Experimental: as §1, §2, §3, §4, §5, §6, §7, §8

Structure (SMILES)	Kd (S100B; H12 library) [µM]	also measured
C[C@@H](CC(=O)N[C@H]1CCC[C@@H]1C(=O)N[C@H]1CCC[C@@H]1C(=O)N[C@H](CC(=O)N[C@H]1CCC[C@@H]1C(=O)N[C@H]1CCC[C@@H]1C(N)=O)Cc1ccccc1)NC(=O)[C@H]1CCC[C@@H]1NC(=O)[C@H]1CCC[C@@H]1N [H12 AF]	114	Kd (Gal-1; H12 library): 428 µM
CC[C@H](C)[C@@H](CC(=O)N[C@H]1CCC[C@@H]1C(=O)N[C@H]1CCC[C@@H]1C(N)=O)NC(=O)[C@H]1CCC[C@@H]1NC(=O)[C@H]1CCC[C@@H]1NC(=O)C[C@H](C)NC(=O)[C@H]1CCC[C@@H]1NC(=O)[C@H]1CCC[C@@H]1N [H12 AI]	348	Kd (Gal-1; H12 library): 436 µM
C[C@@H](CC(=O)N[C@H]1CCC[C@@H]1C(=O)N[C@H]1CCC[C@@H]1C(=O)N[C@@H](CCCCN)CC(=O)N[C@H]1CCC[C@@H]1C(=O)N[C@H]1CCC[C@@H]1C(N)=O)NC(=O)[C@H]1CCC[C@@H]1NC(=O)[C@H]1CCC[C@@H]1N [H12 AK]	380	Kd (Gal-1; H12 library): 303 µM
CC(C)C[C@@H](CC(=O)N[C@H]1CCC[C@@H]1C(=O)N[C@H]1CCC[C@@H]1C(N)=O)NC(=O)[C@H]1CCC[C@@H]1NC(=O)[C@H]1CCC[C@@H]1NC(=O)C[C@H](C)NC(=O)[C@H]1CCC[C@@H]1NC(=O)[C@H]1CCC[C@@H]1N [H12 AL]	348	Kd (Gal-1; H12 library): 436 µM
C[C@@H](CC(=O)N[C@H]1CCC[C@@H]1C(=O)N[C@H]1CCC[C@@H]1C(=O)N[C@@H](CCCNC(=N)N)CC(=O)N[C@H]1CCC[C@@H]1C(=O)N[C@H]1CCC[C@@H]1C(N)=O)NC(=O)[C@H]1CCC[C@@H]1NC(=O)[C@H]1CCC[C@@H]1N [H12 AR]	219	
C[C@@H](CC(=O)N[C@H]1CCC[C@@H]1C(=O)N[C@H]1CCC[C@@H]1C(=O)N[C@H](CC(=O)N[C@H]1CCC[C@@H]1C(=O)N[C@H]1CCC[C@@H]1C(N)=O)Cc1ccc(O)cc1)NC(=O)[C@H]1CCC[C@@H]1NC(=O)[C@H]1CCC[C@@H]1N [H12 AY]	318	Kd (Gal-1; H12 library): 422 µM
NC(=O)[C@H]1CCC[C@@H]1NC(=O)[C@H]1CCC[C@@H]1NC(=O)C[C@H](CC(=O)O)NC(=O)[C@H]1CCC[C@@H]1NC(=O)[C@H]1CCC[C@@H]1NC(=O)C[C@H](Cc1ccccc1)NC(=O)[C@H]1CCC[C@@H]1NC(=O)[C@H]1CCC[C@@H]1N [H12 FD]	371	Kd (Gal-1; H12 library): 251 µM
CC[C@H](C)[C@@H](CC(=O)N[C@H]1CCC[C@@H]1C(=O)N[C@H]1CCC[C@@H]1C(=O)N[C@@H](CCCCN)CC(=O)N[C@H]1CCC[C@@H]1C(=O)N[C@H]1CCC[C@@H]1C(N)=O)NC(=O)[C@H]1CCC[C@@H]1NC(=O)[C@H]1CCC[C@@H]1N [H12 IK]	87	
CC[C@H](C)[C@@H](CC(=O)N[C@H]1CCC[C@@H]1C(=O)N[C@H]1CCC[C@@H]1C(=O)N[C@H](CC(=O)N[C@H]1CCC[C@@H]1C(=O)N[C@H]1CCC[C@@H]1C(N)=O)[C@@H](C)O)NC(=O)[C@H]1CCC[C@@H]1NC(=O)[C@H]1CCC[C@@H]1N [H12 IT]	216	
C[C@@H](CC(=O)N[C@H]1CCC[C@@H]1C(=O)N[C@H]1CCC[C@@H]1C(N)=O)NC(=O)[C@H]1CCC[C@@H]1NC(=O)[C@H]1CCC[C@@H]1NC(=O)C[C@H](CCCCN)NC(=O)[C@H]1CCC[C@@H]1NC(=O)[C@H]1CCC[C@@H]1N [H12 KA]	243	
NCCCC[C@@H](CC(=O)N[C@H]1CCC[C@@H]1C(=O)N[C@H]1CCC[C@@H]1C(=O)N[C@@H](CC(N)=O)CC(=O)N[C@H]1CCC[C@@H]1C(=O)N[C@H]1CCC[C@@H]1C(N)=O)NC(=O)[C@H]1CCC[C@@H]1NC(=O)[C@H]1CCC[C@@H]1N [H12 KN]	274	
C[C@@H](O)[C@@H](CC(=O)N[C@H]1CCC[C@@H]1C(=O)N[C@H]1CCC[C@@H]1C(N)=O)NC(=O)[C@H]1CCC[C@@H]1NC(=O)[C@H]1CCC[C@@H]1NC(=O)C[C@H](CCCCN)NC(=O)[C@H]1CCC[C@@H]1NC(=O)[C@H]1CCC[C@@H]1N [H12 KT]	226	
CC(C)C[C@@H](CC(=O)N[C@H]1CCC[C@@H]1C(=O)N[C@H]1CCC[C@@H]1C(=O)N[C@@H](CO)CC(=O)N[C@H]1CCC[C@@H]1C(=O)N[C@H]1CCC[C@@H]1C(N)=O)NC(=O)[C@H]1CCC[C@@H]1NC(=O)[C@H]1CCC[C@@H]1N [H12 LS]	258	
CC(C)C[C@@H](CC(=O)N[C@H]1CCC[C@@H]1C(=O)N[C@H]1CCC[C@@H]1C(=O)N[C@H](CC(=O)N[C@H]1CCC[C@@H]1C(=O)N[C@H]1CCC[C@@H]1C(N)=O)[C@@H](C)O)NC(=O)[C@H]1CCC[C@@H]1NC(=O)[C@H]1CCC[C@@H]1N [H12 LT]	216	
N=C(N)NCCC[C@@H](CC(=O)N[C@H]1CCC[C@@H]1C(=O)N[C@H]1CCC[C@@H]1C(=O)N[C@@H](CC(N)=O)CC(=O)N[C@H]1CCC[C@@H]1C(=O)N[C@H]1CCC[C@@H]1C(N)=O)NC(=O)[C@H]1CCC[C@@H]1NC(=O)[C@H]1CCC[C@@H]1N [H12 RN]	217	
N=C(N)NCCC[C@@H](CC(=O)N[C@H]1CCC[C@@H]1C(=O)N[C@H]1CCC[C@@H]1C(=O)N[C@@H](CCC(N)=O)CC(=O)N[C@H]1CCC[C@@H]1C(=O)N[C@H]1CCC[C@@H]1C(N)=O)NC(=O)[C@H]1CCC[C@@H]1NC(=O)[C@H]1CCC[C@@H]1N [H12 RQ]	210	
NCCCC[C@@H](CC(=O)N[C@H]1CCC[C@@H]1C(=O)N[C@H]1CCC[C@@H]1C(N)=O)NC(=O)[C@H]1CCC[C@@H]1NC(=O)[C@H]1CCC[C@@H]1NC(=O)C[C@H](CO)NC(=O)[C@H]1CCC[C@@H]1NC(=O)[C@H]1CCC[C@@H]1N [H12 SK]	401	
C[C@@H](O)[C@@H](CC(=O)N[C@H]1CCC[C@@H]1C(=O)N[C@H]1CCC[C@@H]1C(=O)N[C@@H](CCCCN)CC(=O)N[C@H]1CCC[C@@H]1C(=O)N[C@H]1CCC[C@@H]1C(N)=O)NC(=O)[C@H]1CCC[C@@H]1NC(=O)[C@H]1CCC[C@@H]1N [H12 TK]	253	
C[C@@H](CC(=O)N[C@H]1CCCC[C@@H]1C(=O)N[C@H]1CCCC[C@@H]1C(=O)N[C@@H](CC(N)=O)CC(=O)N[C@H]1CCCC[C@@H]1C(N)=O)NC(=O)[C@H]1CCCC[C@@H]1N [H14 AN]		Kd (Gal-1; H14 library): 303 µM
N=C(N)NCCC[C@@H](CC(=O)N[C@H]1CCCC[C@@H]1C(N)=O)NC(=O)[C@H]1CCCC[C@@H]1NC(=O)[C@H]1CCCC[C@@H]1NC(=O)C[C@H](CC(=O)O)NC(=O)[C@H]1CCCC[C@@H]1N [H14 DR]		Kd (S100B; H14 library): 193 µM
NC(=O)[C@H]1CCCC[C@@H]1NC(=O)C[C@H](Cc1ccc(O)cc1)NC(=O)[C@H]1CCCC[C@@H]1NC(=O)[C@H]1CCCC[C@@H]1NC(=O)C[C@H](CC(=O)O)NC(=O)[C@H]1CCCC[C@@H]1N [H14 DY]		Kd (S100B; H14 library): 461 µM
NCCCC[C@@H](CC(=O)N[C@H]1CCCC[C@@H]1C(N)=O)NC(=O)[C@H]1CCCC[C@@H]1NC(=O)[C@H]1CCCC[C@@H]1NC(=O)C[C@H](CCC(=O)O)NC(=O)[C@H]1CCCC[C@@H]1N [H14 EK]		Kd (S100B; H14 library): 324 µM
N=C(N)NCCC[C@@H](CC(=O)N[C@H]1CCCC[C@@H]1C(N)=O)NC(=O)[C@H]1CCCC[C@@H]1NC(=O)[C@H]1CCCC[C@@H]1NC(=O)C[C@H](CCC(=O)O)NC(=O)[C@H]1CCCC[C@@H]1N [H14 ER]		Kd (S100B; H14 library): 349 µM
NCCCC[C@@H](CC(=O)N[C@H]1CCCC[C@@H]1C(=O)N[C@H]1CCCC[C@@H]1C(=O)N[C@@H](CCC(=O)O)CC(=O)N[C@H]1CCCC[C@@H]1C(N)=O)NC(=O)[C@H]1CCCC[C@@H]1N [H14 KE]		Kd (S100B; H14 library): 324 µM
CSCC[C@@H](CC(=O)N[C@H]1CCCC[C@@H]1C(=O)N[C@H]1CCCC[C@@H]1C(=O)N[C@@H](CCC(=O)O)CC(=O)N[C@H]1CCCC[C@@H]1C(N)=O)NC(=O)[C@H]1CCCC[C@@H]1N [H14 ME]		Kd (Gal-1; H14 library): 250 µM

From PMC8162404, “Proteomimetic surface fragments distinguish targets by function” (Chemical Science, 2020)
